According to publication PMC5218480 (PLoS ONE, 2017):

Test system: MV-4-11 cells
Assay: Gene expression microarray analysis (Affymetrix PrimeView) and GSEA
Type: cell-based, human
Parameters: RFU PODN (11730768_x_at) / Fold change /veh PODN (11730768_x_at) / RFU LINC00158 (11744669_a_at) / Fold change /veh LINC00158 (11744669_a_at) / RFU DUSP10 (11751237_a_at) / Fold change /veh DUSP10 (11751237_a_at) / RFU ID3 (11757404_x_at) / Fold change /veh ID3 (11757404_x_at) / RFU PLEKHG5 (11737974_s_at) / Fold change /veh PLEKHG5 (11737974_s_at) / RFU LRRC4B (11730491_at) / Fold change /veh LRRC4B (11730491_at) / RFU GIMAP4 (11747438_a_at) / Fold change /veh GIMAP4 (11747438_a_at) / RFU KRT8 (11758183_x_at) / Fold change /veh KRT8 (11758183_x_at) / RFU CNN1 (11734310_a_at) / Fold change /veh CNN1 (11734310_a_at) / RFU VPS37D (11726825_at) / Fold change /veh VPS37D (11726825_at) / RFU C10orf10 (11716522_x_at) / Fold change /veh C10orf10 (11716522_x_at) / RFU KIR2DL2 /// KIR2DL4 /// KIR2DL5A /// KIR2DL5B /// KIR2DS1 /// KIR2DS2 /// KIR2DS3 /// KIR2DS4 /// KIR3DL3 /// KIR3DL3 /// KIR3DS1 (11738374_at) / Fold change /veh KIR2DL2 /// KIR2DL4 /// KIR2DL5A /// KIR2DL5B /// KIR2DS1 /// KIR2DS2 /// KIR2DS3 /// KIR2DS4 /// KIR3DL3 /// KIR3DL3 /// KIR3DS1 (11738374_at) / RFU C1QL1 (11718748_at) / Fold change /veh C1QL1 (11718748_at) / RFU TMPRSS4 (11747572_a_at) / Fold change /veh TMPRSS4 (11747572_a_at) / RFU HAMP (11756126_x_at) / Fold change /veh HAMP (11756126_x_at) / RFU RNFT2 (11725882_a_at) / Fold change /veh RNFT2 (11725882_a_at) / RFU NR4A2 (11747474_a_at) / Fold change /veh NR4A2 (11747474_a_at) / RFU ABCC12 (11746883_a_at) / Fold change /veh ABCC12 (11746883_a_at) / RFU TMEM136 (11760407_x_at) / Fold change /veh TMEM136 (11760407_x_at) / RFU CLDN22 /// WWC2 (11732394_at) / Fold change /veh CLDN22 /// WWC2 (11732394_at) / RFU HLA-DPB1 (11760878_x_at) / Fold change /veh HLA-DPB1 (11760878_x_at) / RFU SPINT1 (11716480_a_at) / Fold change /veh SPINT1 (11716480_a_at) / RFU GAP43 (11754022_s_at) / Fold change /veh GAP43 (11754022_s_at) / RFU A4GNT (11735810_at) / Fold change /veh A4GNT (11735810_at) / RFU PRB3 (11715151_x_at) / Fold change /veh PRB3 (11715151_x_at) / RFU TUBB4B (11761932_at) / Fold change /veh TUBB4B (11761932_at) / RFU CAPN14 (11732068_a_at) / Fold change /veh CAPN14 (11732068_a_at) / RFU TMCC2 (11721928_a_at) / Fold change /veh TMCC2 (11721928_a_at) / RFU IRGQ (11745062_a_at) / Fold change /veh IRGQ (11745062_a_at) / RFU FAM174B (11720279_a_at) / Fold change /veh FAM174B (11720279_a_at) / RFU TMPRSS4 (11748680_a_at) / Fold change /veh TMPRSS4 (11748680_a_at) / RFU FAM212B (11763350_a_at) / Fold change /veh FAM212B (11763350_a_at) / RFU PLEKHG5 (11743358_a_at) / Fold change /veh PLEKHG5 (11743358_a_at) / RFU ZSCAN30 (11745921_a_at) / Fold change /veh ZSCAN30 (11745921_a_at) / RFU CMKLR1 (11741424_a_at) / Fold change /veh CMKLR1 (11741424_a_at) / RFU LOC101060620 /// MAPK8IP1 (11723275_at) / Fold change /veh LOC101060620 /// MAPK8IP1 (11723275_at) / RFU SPTSSB (11747773_x_at) / Fold change /veh SPTSSB (11747773_x_at) / RFU PRSS12 (11739890_at) / Fold change /veh PRSS12 (11739890_at) / RFU BIN1 (11741810_x_at) / Fold change /veh BIN1 (11741810_x_at) / RFU WNT11 (11732464_a_at) / Fold change /veh WNT11 (11732464_a_at) / RFU C10orf10 (11716521_a_at) / Fold change /veh C10orf10 (11716521_a_at) / RFU C5orf56 (11738089_at) / Fold change /veh C5orf56 (11738089_at) / RFU CYB561 (11721691_x_at) / Fold change /veh CYB561 (11721691_x_at) / RFU ANKRD19P (11752326_a_at) / Fold change /veh ANKRD19P (11752326_a_at) / RFU OR2T12 /// OR2T33 /// OR2T8 (11738714_s_at) / Fold change /veh OR2T12 /// OR2T33 /// OR2T8 (11738714_s_at) / RFU VCAN (11748164_a_at) / Fold change /veh VCAN (11748164_a_at) / RFU JSRP1 (11732532_at) / Fold change /veh JSRP1 (11732532_at) / RFU KRTAP10-11 (11738290_x_at) / Fold change /veh KRTAP10-11 (11738290_x_at) / RFU MYO3A (11730013_a_at) / Fold change /veh MYO3A (11730013_a_at) / RFU EBF3 (11725865_a_at) / Fold change /veh EBF3 (11725865_a_at) / RFU CAMK2N1 (11719241_x_at) / Fold change /veh CAMK2N1 (11719241_x_at) / RFU C5orf56 (11738088_a_at) / Fold change /veh C5orf56 (11738088_a_at) / RFU OLFML3 (11715873_a_at) / Fold change /veh OLFML3 (11715873_a_at) / RFU LOC100653217 /// NTM (11731650_a_at) / Fold change /veh LOC100653217 /// NTM (11731650_a_at) / RFU MAPK11 (11762145_a_at) / Fold change /veh MAPK11 (11762145_a_at) / RFU FIZ1 (11724087_x_at) / Fold change /veh FIZ1 (11724087_x_at) / RFU OASL (11726364_x_at) / Fold change /veh OASL (11726364_x_at) / RFU SOX15 (11748057_x_at) / Fold change /veh SOX15 (11748057_x_at) / RFU CD79A (11719716_a_at) / Fold change /veh CD79A (11719716_a_at) / RFU HIST1H1D (11736915_at) / Fold change /veh HIST1H1D (11736915_at) / RFU CASKIN2 (11723855_a_at) / Fold change /veh CASKIN2 (11723855_a_at) / RFU LOC730098 (11760151_x_at) / Fold change /veh LOC730098 (11760151_x_at) / RFU OR4N2 (11742367_at) / Fold change /veh OR4N2 (11742367_at) / RFU PRRT2 (11749266_a_at) / Fold change /veh PRRT2 (11749266_a_at) / RFU SNX32 (11753110_a_at) / Fold change /veh SNX32 (11753110_a_at) / RFU CDHR5 (11726645_a_at) / Fold change /veh CDHR5 (11726645_a_at) / RFU RCAN1 (11760418_a_at) / Fold change /veh RCAN1 (11760418_a_at) / RFU FAM167A (11723789_a_at) / Fold change /veh FAM167A (11723789_a_at) / RFU FAM26E (11764081_at) / Fold change /veh FAM26E (11764081_at) / RFU ISYNA1 (11749810_s_at) / Fold change /veh ISYNA1 (11749810_s_at) / RFU ACY1 (11761880_at) / Fold change /veh ACY1 (11761880_at) / RFU 11764098_at / Fold change /veh 11764098_at / RFU SAMD14 (11745864_x_at) / Fold change /veh SAMD14 (11745864_x_at) / RFU NPB (11741838_a_at) / Fold change /veh NPB (11741838_a_at) / RFU TMPRSS6 (11731388_a_at) / Fold change /veh TMPRSS6 (11731388_a_at) / RFU KRTAP10-2 (11738614_at) / Fold change /veh KRTAP10-2 (11738614_at) / RFU ARHGAP8 /// PRR5-ARHGAP8 (11727945_x_at) / Fold change /veh ARHGAP8 /// PRR5-ARHGAP8 (11727945_x_at) / RFU KRTAP5-7 /// NADSYN1 (11734609_at) / Fold change /veh KRTAP5-7 /// NADSYN1 (11734609_at) / RFU RASL12 (11751679_a_at) / Fold change /veh RASL12 (11751679_a_at) / RFU CDKN2B (11736163_a_at) / Fold change /veh CDKN2B (11736163_a_at) / RFU PRF1 (11729649_at) / Fold change /veh PRF1 (11729649_at) / RFU, ZNF638 /// ZNF638-IT1 / Fold change vs veh, ZNF638 /// ZNF638-IT1 / RFU, PANK3 / Fold change vs veh, PANK3 / RFU, SH3YL1 / Fold change vs veh, SH3YL1 / RFU, ZEB2 / Fold change vs veh, ZEB2 / RFU, NRIP1 / Fold change vs veh, NRIP1 / RFU, PTTG1IP / Fold change vs veh, PTTG1IP / RFU, CAPN2 / Fold change vs veh, CAPN2 / RFU, MED14 / Fold change vs veh, MED14 / RFU, SNORA58 / Fold change vs veh, SNORA58 / RFU, C1orf63 / Fold change vs veh, C1orf63 / RFU, LRRFIP1 / Fold change vs veh, LRRFIP1 / RFU, NDUFAF7 / Fold change vs veh, NDUFAF7 / RFU, SLC12A2 / Fold change vs veh, SLC12A2 / RFU, IBTK / Fold change vs veh, IBTK / RFU, ESF1 / Fold change vs veh, ESF1 / Fold change vs veh, TMEM50B / RFU, TAOK1 / Fold change vs veh, TAOK1 / RFU, ACBD3 / Fold change vs veh, ACBD3 / RFU, TMA16 / Fold change vs veh, TMA16 / RFU, RWDD3 / Fold change vs veh, RWDD3 / RFU, BCAT1 / Fold change vs veh, BCAT1 / RFU, EDEM3 / Fold change vs veh, EDEM3 / RFU, TMEM33 / Fold change vs veh, TMEM33 / RFU, WDR75 / Fold change vs veh, WDR75 / RFU, AHCTF1 / Fold change vs veh, AHCTF1 / RFU, TFRC / Fold change vs veh, TFRC / RFU, ZDHHC17 / Fold change vs veh, ZDHHC17 / RFU, NOM1 / Fold change vs veh, NOM1 / RFU, ARL8B / Fold change vs veh, ARL8B / RFU, ZBTB11 / Fold change vs veh, ZBTB11 / RFU, TAMM41 / Fold change vs veh, TAMM41 / RFU, KIAA1704 /// LOC100996395 / Fold change vs veh, KIAA1704 /// LOC100996395 / RFU, ING1 / Fold change vs veh, ING1 / RFU, TRMT61B / Fold change vs veh, TRMT61B / RFU, FUBP3 / Fold change vs veh, FUBP3 / RFU, TP53 / Fold change vs veh, TP53 / RFU, TNKS2 / Fold change vs veh, TNKS2 / RFU, ZFP14 / Fold change vs veh, ZFP14 / RFU, ACTR2 / Fold change vs veh, ACTR2 / RFU, PPP3R1 / Fold change vs veh, PPP3R1 / RFU, PIK3R1 / Fold change vs veh, PIK3R1 / RFU, HNRNPA1 / Fold change vs veh, HNRNPA1 / RFU, RNF170 / Fold change vs veh, RNF170 / RFU, ZNF28 / Fold change vs veh, ZNF28 / RFU, RNGTT / Fold change vs veh, RNGTT / RFU, OGT / Fold change vs veh, OGT / RFU, BRD1 / Fold change vs veh, BRD1 / RFU, MARS / Fold change vs veh, MARS / RFU, ZNF655 / Fold change vs veh, ZNF655 / RFU, FAHD1 / Fold change vs veh, FAHD1 / RFU, BDP1 / Fold change vs veh, BDP1 / RFU, LRRCC1 / Fold change vs veh, LRRCC1 / RFU, ARID1A / Fold change vs veh, ARID1A / RFU, ZNF146 / Fold change vs veh, ZNF146 / RFU, ZNF330 / Fold change vs veh, ZNF330 / RFU, GPN3 / Fold change vs veh, GPN3 / RFU, C9orf123 / Fold change vs veh, C9orf123 / RFU, N4BP2L2 / Fold change vs veh, N4BP2L2 / RFU, ARFIP1 / Fold change vs veh, ARFIP1 / RFU, FAM179B / Fold change vs veh, FAM179B / RFU, BCL10 / Fold change vs veh, BCL10 / RFU, UHRF1BP1L / Fold change vs veh, UHRF1BP1L / RFU, BET1 / Fold change vs veh, BET1 / RFU, CNOT2 / Fold change vs veh, CNOT2 / RFU, ZNF268 / Fold change vs veh, ZNF268 / Fold change vs veh, ZNF507 / RFU, DGCR2 / Fold change vs veh, DGCR2 / RFU, WDSUB1 / Fold change vs veh, WDSUB1 / Fold change vs veh, HSP90B1 /// MIR3652 / RFU, ADSS / Fold change vs veh, ADSS / RFU, GK / Fold change vs veh, GK / RFU, ZNF148 / Fold change vs veh, ZNF148 / RFU, TAF9 / Fold change vs veh, TAF9 / RFU, SLC1A5 / Fold change vs veh, SLC1A5 / RFU, SLMO2 / Fold change vs veh, SLMO2 / RFU, ABCC4 / Fold change vs veh, ABCC4 / RFU, LOC101060439 /// RAP1B / Fold change vs veh, LOC101060439 /// RAP1B / RFU, RFX7 / Fold change vs veh, RFX7 / RFU, GTPBP10 / Fold change vs veh, GTPBP10 / RFU, CNEP1R1 / Fold change vs veh, CNEP1R1 / RFU, BIVM-ERCC5 /// ERCC5 / Fold change vs veh, BIVM-ERCC5 /// ERCC5 / RFU, ILF3 / Fold change vs veh, ILF3 / RFU 11762660_at / Fold change /veh 11762660_at / RFU VCAN (11757783_s_at) / Fold change /veh VCAN (11757783_s_at) / RFU DDX43 (11728927_at) / Fold change /veh DDX43 (11728927_at) / RFU KRT8 (11758188_x_at) / Fold change /veh KRT8 (11758188_x_at) / RFU NKD1 (11759106_at) / Fold change /veh NKD1 (11759106_at) / RFU SRD5A1 (11742802_a_at) / Fold change /veh SRD5A1 (11742802_a_at) / RFU TPSAB1 /// TPSB2 (11721975_s_at) / Fold change /veh TPSAB1 /// TPSB2 (11721975_s_at) / RFU GSTM3 (11746129_a_at) / Fold change /veh GSTM3 (11746129_a_at) / RFU IL23R (11737362_x_at) / Fold change /veh IL23R (11737362_x_at) / RFU TMEM51 (11727254_a_at) / Fold change /veh TMEM51 (11727254_a_at) / RFU PIWIL2 (11732686_x_at) / Fold change /veh PIWIL2 (11732686_x_at) / RFU ORM1 (11744905_x_at) / Fold change /veh ORM1 (11744905_x_at) / RFU CCDC152 (11743942_at) / Fold change /veh CCDC152 (11743942_at) / RFU ECM1 (11717891_a_at) / Fold change /veh ECM1 (11717891_a_at) / RFU IL23R (11748794_a_at) / Fold change /veh IL23R (11748794_a_at) / RFU TNFAIP8L3 (11732012_x_at) / Fold change /veh TNFAIP8L3 (11732012_x_at) / RFU MBOAT4 (11741988_at) / Fold change /veh MBOAT4 (11741988_at) / RFU 11764193_at / Fold change /veh 11764193_at / RFU TMEM53 (11763286_at) / Fold change /veh TMEM53 (11763286_at) / RFU MAGEB2 (11727129_at) / Fold change /veh MAGEB2 (11727129_at) / RFU TMEM200A (11744735_a_at) / Fold change /veh TMEM200A (11744735_a_at) / RFU CCDC152 (11751479_a_at) / Fold change /veh CCDC152 (11751479_a_at) / RFU FAM211A (11726209_a_at) / Fold change /veh FAM211A (11726209_a_at) / RFU RGS16 (11746705_a_at) / Fold change /veh RGS16 (11746705_a_at) / RFU VCAN (11755009_s_at) / Fold change /veh VCAN (11755009_s_at) / RFU RHOB (11743442_s_at) / Fold change /veh RHOB (11743442_s_at) / RFU RGS16 (11720943_a_at) / Fold change /veh RGS16 (11720943_a_at) / RFU RGS16 (11720944_at) / Fold change /veh RGS16 (11720944_at) / RFU, VPS4B / Fold change vs veh, VPS4B / RFU, CREB1 / Fold change vs veh, CREB1 / RFU, DNAJC13 / Fold change vs veh, DNAJC13 / RFU, GNAQ / Fold change vs veh, GNAQ / RFU, CDK5R1 / Fold change vs veh, CDK5R1 / RFU, ZRANB3 / Fold change vs veh, ZRANB3 / RFU, CUL4A / Fold change vs veh, CUL4A / RFU, CCNY / Fold change vs veh, CCNY / RFU, UFL1 / Fold change vs veh, UFL1 / RFU, COG3 / Fold change vs veh, COG3 / RFU, DIAPH2 / Fold change vs veh, DIAPH2 / RFU, SKA2 / Fold change vs veh, SKA2 / RFU, AFF3 / Fold change vs veh, AFF3 / RFU, LMF1 / Fold change vs veh, LMF1 / RFU, IPO11 / Fold change vs veh, IPO11 / RFU, DFFB / Fold change vs veh, DFFB / RFU, FOXP1 / Fold change vs veh, FOXP1 / RFU, CARD8 / Fold change vs veh, CARD8 / RFU, STRN3 / Fold change vs veh, STRN3 / RFU, ADK / Fold change vs veh, ADK / RFU, RASSF2 / Fold change vs veh, RASSF2 / RFU, WIPF1 / Fold change vs veh, WIPF1 / RFU, LARP1B / Fold change vs veh, LARP1B / RFU, RASA1 / Fold change vs veh, RASA1 / RFU, RB1 / Fold change vs veh, RB1 / RFU, PPFIA1 / Fold change vs veh, PPFIA1 / RFU, MAT2A / Fold change vs veh, MAT2A / RFU, CCT5 / Fold change vs veh, CCT5 / RFU, WDR92 / Fold change vs veh, WDR92 / RFU, CUX1 / Fold change vs veh, CUX1 / RFU, TTC7A / Fold change vs veh, TTC7A / RFU, TMEM135 / Fold change vs veh, TMEM135 / RFU, DEPTOR / Fold change vs veh, DEPTOR / RFU, CPM / Fold change vs veh, CPM / RFU, DNAJB6 / Fold change vs veh, DNAJB6 / RFU, CACNA2D3 / Fold change vs veh, CACNA2D3 / RFU, DTX4 / Fold change vs veh, DTX4 / RFU, TFCP2 / Fold change vs veh, TFCP2 / RFU, GMCL1 /// GMCL1P1 / Fold change vs veh, GMCL1 /// GMCL1P1 / RFU, AEBP2 / Fold change vs veh, AEBP2 / RFU, SNHG1 /// SNORD22 /// SNORD25 /// SNORD26 /// SNORD27 /// SNORD28 /// SNORD29 /// SNORD31 / Fold change vs veh, SNHG1 /// SNORD22 /// SNORD25 /// SNORD26 /// SNORD27 /// SNORD28 /// SNORD29 /// SNORD31 / Fold change (Aza/veh), C12orf56 (ProbeSet 11735607_a_at) / Fold change (ACY-1035/veh), C12orf56 (ProbeSet 11735607_a_at) / Fold change (Aza/veh), FGFR1OP (ProbeSet 11751329_s_at) / Fold change (ACY-1035/veh), FGFR1OP (ProbeSet 11751329_s_at) / Fold change (Aza/veh), VPS36 (ProbeSet 11739960_a_at) / Fold change (ACY-1035/veh), VPS36 (ProbeSet 11739960_a_at) / RFU SYPL1 (11715823_x_at) / Fold change /veh SYPL1 (11715823_x_at) / RFU IGFBP7 (11715501_s_at) / Fold change /veh IGFBP7 (11715501_s_at) / RFU REEP3 (11722064_at) / Fold change /veh REEP3 (11722064_at) / RFU IGLL1 (11728026_x_at) / Fold change /veh IGLL1 (11728026_x_at): dose or concentration left out as unconfirmed
Settings: MV-4-11 cells, 48 hours

Nc1ncn([C@@H]2O[C@H](CO)[C@@H](O)[C@H]2O)c(=O)n1 [azacitidine]
Fold change /veh CASKIN2 (11723855_a_at): 1.13
